# Test results published in EP4567034A1 (Korea Institute of Science and Technology, priority 2022, dated 2024).
# Legend:
# S1P1 receptor [1] = target: T1, S1P1 receptor (Homo sapiens, UniProt P21453); experiment: S1P1 receptor internalization (endosome formation) assay in S1P1 overexpressing cell line (DiscoverX), luminescence; format: cell-based
# S1P1 receptor [2] = target: T1, S1P1 receptor; experiment: S1P1 β-arrestin recruitment assay in S1P1 overexpressing cell line (DiscoverX), luminescence; format: cell-based
# [3] = S1P1 overexpressing cell line, endosome formation by internalization, luminescence, read-out: Internalization EC50
# [4] = S1P1 overexpressing cell line, β-arrestin recruitment, luminescence, read-out: β-arrestin EC50
# T1 sequence (P21453 whole entry): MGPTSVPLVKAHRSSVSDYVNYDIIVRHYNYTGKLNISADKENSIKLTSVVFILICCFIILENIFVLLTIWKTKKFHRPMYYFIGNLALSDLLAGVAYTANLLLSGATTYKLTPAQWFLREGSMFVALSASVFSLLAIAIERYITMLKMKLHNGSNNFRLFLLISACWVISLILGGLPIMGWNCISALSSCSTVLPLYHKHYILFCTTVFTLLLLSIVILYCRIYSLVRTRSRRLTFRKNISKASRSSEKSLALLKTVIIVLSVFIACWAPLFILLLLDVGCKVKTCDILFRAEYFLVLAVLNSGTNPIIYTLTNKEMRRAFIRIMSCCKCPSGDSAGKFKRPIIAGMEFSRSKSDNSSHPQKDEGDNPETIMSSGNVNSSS
SMILES,EC50 (S1P1 receptor [1]) [nM],EC50 (S1P1 receptor [2]) [nM],EC50 (S1P1 receptor [1]; [3]) [nM],EC50 (S1P1 receptor [2]; [4]) [nM]
"CC(C)(C)OC(=O)C1CN(Cc2ccc(-c3cnc(-c4ccc(C(C)(C)C)cc4)[se]3)cc2)C1 [Compound 4, Tert-butyl 1-(4-(2-(4-tert-butylphenyl)-1,3-selenazole-5-yl)benzyl)azetidine-3-carboxylate]",141,70.1,,
"CCOC(=O)C1CN(Cc2ccc(-c3cnc(-c4ccc(OC(C)C)cc4)[se]3)cc2)C1 [Compound 20, Ethyl 1-(4-(2-(4-isopropoxyphenyl)-1,3-selenazole-5-yl)benzyl)azetidine-3-carboxylate]",119,3.05,,
"CCOC(=O)C1CN(Cc2ccc(-c3cnc(-c4ccccc4OC(C)C)[se]3)cc2)C1 [Compound 25, Ethyl 1-(4-(2-(2-isopropoxyphenyl)-1,3-selenazole-5-yl)benzyl)azetidine-3-carboxylate]",,,347,252
"COc1ccc(-c2ncc(-c3ccc(CN4CC(C(=O)O)C4)cc3)[se]2)cc1 [Compound 17, 1-(4-(2-(4-methoxyphenyl)-1,3-selenazole-5-yl)benzyl)azetidine-3-carboxylic acid]",81.3,25.9,,
"COC(=O)C1CN(Cc2ccc(-c3cnc(-c4ccc(C(C)(C)C)cc4)[se]3)cc2)C1 [Compound 1, Methyl 1-(4-(2-(4-tert-butylphenyl)-1,3-selenazole-5-yl)benzyl)azetidine-3-carboxylate]",173,11.1,,
"CCOC(=O)C1CN(Cc2ccc(-c3cnc(-c4ccc(OC(C)C)c(C#N)c4)[se]3)cc2)C1 [Compound 7, Ethyl 1-(4-(2-(3-cyano-4-isopropoxyphenyl)-1,3-selenazole-5-yl)benzyl)azetidine-3-carboxylate]",4.33,1.17,,
"CCOC(=O)C1CN(Cc2ccc(-c3cnc(-c4ccc(OC(C)C)c(C(F)(F)F)c4)[se]3)cc2)C1 [Compound 11, Ethyl 1-(4-(2-(4-isopropoxy-3-(trifluoromethyl)phenyl)-1,3-selenazole-5-yl)benzyl)azetidine-3-carboxylate]",12.6,1.49,,
"COC(=O)C1CN(Cc2ccc(-c3cnc(-c4ccc(OC)cc4)[se]3)cc2)C1 [Compound 16, Methyl 1-(4-(2-(4-methoxyphenyl)-1,3-selenazole-5-yl)benzyl)azetidine-3-carboxylate]",139,48.5,,
"O=C(O)C1CN(Cc2ccc(-c3cnc(-c4cccnc4)[se]3)cc2)C1 [Compound 29, Sodium 1-(4-(2-(pyridine-3-yl)-1,3-selenazole-5-yl)benzyl)azetidine-3-carboxylate]",,,379,635
"CC(C)Oc1cccc(-c2ncc(-c3ccc(CN4CC(C(=O)O)C4)cc3)[se]2)c1 [Compound 22, 1-(4-(2-(3-isopropoxyphenyl)-1,3-selenazole-5-yl)benzyl)azetidine-3-carboxylic acid]",97.4,8.59,,
"COC(=O)C1CN(Cc2ccc(-c3cnc(-c4ccc(OC(C)C)cc4)[se]3)cc2)C1 [Compound 18, Methyl 1-(4-(2-(4-isopropoxyphenyl)-1,3-selenazole-5-yl)benzyl)azetidine-3-carboxylate]",9.26,3.24,,
"COC(=O)C1CN(Cc2ccc(-c3cnc(-c4ccc(OC(C)C)c(C(F)(F)F)c4)[se]3)cc2)C1 [Compound 9, Methyl 1-(4-(2-(4-isopropoxy-3-(trifluoromethyl)phenyl)-1,3-selenazole-5-yl)benzyl)azetidine-3-carboxylate]",1.59,1.82,,
COC(=O)C1CN(Cc2ccc(-c3cnc(-c4ccc(OC(C)C)c(C#N)c4)[se]3)cc2)C1 [Compound 5],0.87,3.64,,
"CC(C)Oc1ccc(-c2ncc(-c3ccc(CN4CC(C(=O)O)C4)cc3)[se]2)cc1 [Compound 19, 1-(4-(2-(4-isopropoxyphenyl)-1,3-selenazole-5-yl)benzyl)azetidine-3-carboxylic acid]",0.97,1.14,,
"CC(C)Oc1ccccc1-c1ncc(-c2ccc(CN3CC(C(=O)O)C3)cc2)[se]1 [Compound 24, 1-(4-(2-(2-isopropoxyphenyl)-1,3-selenazole-5-yl)benzyl)azetidine-3-carboxylic acid]",,,> 1000,> 1000
"COC(=O)C1CN(Cc2ccc(-c3cnc(-c4ccccn4)[se]3)cc2)C1 [Compound 26, Methyl 1-(4-(2-(pyridine-2-yl)-1,3-selenazole-5-yl)benzyl)azetidine-3-carboxylate]",,,> 1000,> 1000
"CC(C)Oc1ccc(-c2ncc(-c3ccc(CN4CC(C(=O)O)C4)cc3)[se]2)cc1C(F)(F)F [Compound 10, 1-(4-(2-(4-isopropoxy-3-(trifluoromethyl)phenyl)-1,3-selenazole-5-yl)benzyl)azetidine-3-carboxylic acid]",0.36,0.45,,

SMILES,EC50 (S1P1 receptor [1]) [nM],EC50 (S1P1 receptor [2]) [nM],EC50 (S1P1 receptor [1]; [3]) [nM],EC50 (S1P1 receptor [2]; [4]) [nM]
"CCOc1ccc(-c2ncc(-c3ccc(CN4CC(C(=O)OC)C4)cc3)[se]2)cc1Cl [Compound 14, Methyl 1-(4-(2-(3-chloro-4-ethoxyphenyl)-1,3-selenazole-5-yl)benzyl)azetidine-3-carboxylate]",4.91,1.13,,
"CCOC(=O)C1CN(Cc2ccc(-c3cnc(-c4ccc(C(C)(C)C)cc4)[se]3)cc2)C1 [Compound 3, Ethyl 1-(4-(2-(4-tert-butylphenyl)-1,3-selenazole-5-yl)benzyl)azetidine-3-carboxylate]",116,23.6,,
"COC(=O)C1CN(Cc2ccc(-c3cnc(-c4cccnc4)[se]3)cc2)C1 [Compound 28, Methyl 1-(4-(2-(pyridine-3-yl)-1,3-selenazole-5-yl)benzyl)azetidine-3-carboxylate]",,,> 1000,> 1000
"COC(=O)C1CCN(Cc2ccc(-c3cnc(-c4ccc(C(C)(C)C)cc4)[se]3)cc2)C1 (stereo not drawn) [Compound 30, Methyl 1-(4-(2-(4-tert-butylphenyl)-1,3-selenazole-5-yl)benzyl)pyrrolidine-3-carboxylate]",205,8.5,,
"COC(=O)CCNCc1ccc(-c2cnc(-c3ccc(OC(C)C)c(Cl)c3)[se]2)cc1 [Compound 37, Methyl 3-(4-(2-(3-chloro-4-isopropoxyphenyl)-1,3-selenazole-5-yl)benzylamino)propanoate]",13.5,7.88,,
"COC(=O)C1CN(Cc2ccc(-c3cnc(-c4ccccc4OC(C)C)[se]3)cc2)C1 [Compound 23, Methyl 1-(4-(2-(2-isopropoxyphenyl)-1,3-selenazole-5-yl)benzyl)azetidine-3-carboxylate]",,,> 1000,> 1000
"CCOC(=O)CNCc1ccc(-c2cnc(-c3ccc(OC(C)C)c(Cl)c3)[se]2)cc1 [Compound 35, Ethyl 2-(4-(2-(3-chloro-4-isopropoxyphenyl)-1,3-selenazole-5-yl)benzylamino)acetate]",11.5,21,,
"COC(=O)C1CN(Cc2ccc(-c3ncc(-c4ccc(C(C)(C)C)cc4)[se]3)cc2)C1 [Compound 39, Methyl 1-(4-(5-(4-tert-butylphenyl)-1,3-selenazole-2-yl)benzyl)azetidine-3-carboxylate]",160,39.2,,
"COC(=O)C1CN(Cc2ccc(-c3cnc(-c4ccc(OC(C)C)c(Cl)c4)[se]3)cc2)C1 [Compound 12, Methyl 1-(4-(2-(3-chloro-4-isopropoxyphenyl)-1,3-selenazole-5-yl)benzyl)azetidine-3-carboxylate]",1.48,1.41,,
"COC(=O)C1CN(Cc2ccc(-c3cnc(-c4cccc(OC(C)C)c4)[se]3)cc2)C1 [Compound 21, Methyl 1-(4-(2-(3-isopropoxyphenyl)-1,3-selenazole-5-yl)benzyl)azetidine-3-carboxylate]",,,379,503
"COC(=O)C1CCN(Cc2ccc(-c3cnc(-c4ccc(OC(C)C)c(Cl)c4)[se]3)cc2)C1 (stereo not drawn) [Compound 33, Methyl 1-(4-(2-(3-chloro-4-isopropoxyphenyl)-1,3-selenazole-5-yl)benzyl)pyrrolidine-3-carboxylate]",11.9,1.79,,
"COC(=O)C1CCN(Cc2ccc(-c3cnc(-c4ccc(C(C)(C)C)cc4)[se]3)cc2)CC1 [Compound 32, Methyl 1-(4-(2-(4-tert-butylphenyl)-1,3-selenazole-5-yl)benzyl)piperidine-4-carboxylate]",,,519,580
"COC(=O)C1CN(Cc2ccc(-c3ncc(-c4ccc(OC(C)C)c(Cl)c4)[se]3)cc2)C1 [Compound 41, Methyl 1-(4-(5-(3-chloro-4-isopropoxyphenyl)-1,3-selenazole-2-yl)benzyl)azetidine-3-carboxylate]",9.52,0.9,,
"O=C(O)C1CN(Cc2ccc(-c3cnc(-c4ccccn4)[se]3)cc2)C1 [Compound 27, Sodium 1-(4-(2-(pyridine-2-yl)-1,3-selenazole-5-yl)benzyl)azetidine-3-carboxylate]",,,> 1000,> 1000
"CC(C)Oc1ccc(-c2ncc(-c3ccc(CN4CC(C(=O)OC(C)(C)C)C4)cc3)[se]2)cc1C#N [Compound 8, Tert-butyl 1-(4-(2-(3-cyano-4-isopropoxyphenyl)-1,3-selenazole-5-yl)benzyl)azetidine-3-carboxylate]",33.1,29.9,,
CC(C)Oc1ccc(-c2ncc(-c3ccc(CN4CC(C(=O)O)C4)cc3)[se]2)cc1C#N [Compound 6],0.065,0.37,,
